# Data from PubChem BioAssay (NCI).
#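 Briefly, cells in 96-well plates were exposed to five compound concentrations for 48 h, and endpoints were estimated by linear interpolation. At the TGI there is no net growth.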
# Tests used:
# Test in all cases: NCI tumour cell line growth inhibition, 48 h
# OVCAR-5 ovarian = system: OVCAR-5 ovarian
# NCI-H226 lung = system: NCI-H226 lung
# SNB-75 CNS = system: SNB-75 CNS
# U251 CNS = system: U251 CNS
# A549 NSCLC = system: A549 NSCLC
# HCC-2998 colon = system: HCC-2998 colon
# ACHN renal = system: ACHN renal
# CCRF-CEM leukemia = system: CCRF-CEM leukemia
# KM12 colon = system: KM12 colon
# CAKI-1 renal = system: CAKI-1 renal
# MDA-MB-231 breast = system: MDA-MB-231 breast
# SF-295 CNS = system: SF-295 CNS
# SN12C renal = system: SN12C renal
# NCI/ADR-RES ovarian = system: NCI/ADR-RES ovarian
# MCF7 breast = system: MCF7 breast
# K-562 leukemia = system: K-562 leukemia
# SW-620 colon = system: SW-620 colon
# RXF 393 renal = system: RXF 393 renal
# OVCAR-8 ovarian = system: OVCAR-8 ovarian
# SK-MEL-2 melanoma = system: SK-MEL-2 melanoma
# M14 melanoma = system: M14 melanoma
# BT-549 breast = system: BT-549 breast
# 786-0 renal = system: 786-0 renal
# OVCAR-4 ovarian = system: OVCAR-4 ovarian
# MOLT-4 leukemia = system: MOLT-4 leukemia
# SF-539 CNS = system: SF-539 CNS
# HCT-116 colon = system: HCT-116 colon
# UACC-62 melanoma = system: UACC-62 melanoma
# UACC-257 melanoma = system: UACC-257 melanoma
# IGROV1 ovarian = system: IGROV1 ovarian
# COLO 205 colon = system: COLO 205 colon
# EKVX NSCLC = system: EKVX NSCLC
# SK-OV-3 ovarian = system: SK-OV-3 ovarian
# TK-10 renal = system: TK-10 renal
# SNB-19 CNS = system: SNB-19 CNS
# HOP-62 NSCLC = system: HOP-62 NSCLC
# MALME-3M melanoma = system: MALME-3M melanoma
# PC-3 prostate = system: PC-3 prostate
# MDA-N = system: MDA-N
# NCI-H460 lung = system: NCI-H460 lung
# HS 578T breast = system: HS 578T breast
# HOP-92 NSCLC = system: HOP-92 NSCLC
# NCI-H522 lung = system: NCI-H522 lung
# LOX IMVI melanoma = system: LOX IMVI melanoma
# HT29 colon = system: HT29 colon
# SK-MEL-5 melanoma = system: SK-MEL-5 melanoma
# HCT-15 colon = system: HCT-15 colon
# A498 renal = system: A498 renal
# SF-268 CNS = system: SF-268 CNS
# RPMI-8226 leukemia = system: RPMI-8226 leukemia
# MDA-MB-435 = system: MDA-MB-435
structure (smiles),measurement,setting,value
CSC(SC)=C1C(=O)N(c2ccccc2)N=C1C,TGI,OVCAR-5 ovarian,> 100 µM
same,TGI,NCI-H226 lung,87.1 µM
same,TGI,SNB-75 CNS,> 100 µM
same,TGI,U251 CNS,> 100 µM
same,TGI,A549 NSCLC,> 100 µM
same,TGI,HCC-2998 colon,> 100 µM
same,TGI,ACHN renal,> 100 µM
same,TGI,CCRF-CEM leukemia,49.8 µM
same,TGI,KM12 colon,> 100 µM
same,TGI,CAKI-1 renal,65.8 µM
same,TGI,MDA-MB-231 breast,> 100 µM
same,TGI,SF-295 CNS,99.6 µM
same,TGI,SN12C renal,97.3 µM
same,TGI,NCI/ADR-RES ovarian,> 100 µM
same,TGI,MCF7 breast,46 µM
same,TGI,K-562 leukemia,66.8 µM
same,TGI,SW-620 colon,> 100 µM
same,TGI,RXF 393 renal,74.4 µM
same,TGI,OVCAR-8 ovarian,> 100 µM
same,TGI,SK-MEL-2 melanoma,46.8 µM
same,TGI,M14 melanoma,60.8 µM
same,TGI,BT-549 breast,81.9 µM
same,TGI,786-0 renal,62 µM
same,TGI,OVCAR-4 ovarian,> 100 µM
same,TGI,MOLT-4 leukemia,52.9 µM
same,TGI,SF-539 CNS,> 100 µM
same,TGI,HCT-116 colon,54 µM
same,TGI,UACC-62 melanoma,89.9 µM
same,TGI,UACC-257 melanoma,> 100 µM
same,TGI,IGROV1 ovarian,93.5 µM
same,TGI,COLO 205 colon,36.3 µM
same,TGI,EKVX NSCLC,54.6 µM
same,TGI,SK-OV-3 ovarian,91.9 µM
same,TGI,TK-10 renal,> 100 µM
same,TGI,SNB-19 CNS,98.1 µM
same,TGI,HOP-62 NSCLC,> 100 µM
same,TGI,MALME-3M melanoma,58.8 µM
same,TGI,PC-3 prostate,> 100 µM
same,TGI,MDA-N,> 100 µM
same,TGI,NCI-H460 lung,82.4 µM
same,TGI,HS 578T breast,> 100 µM
same,TGI,HOP-92 NSCLC,33.7 µM
same,TGI,NCI-H522 lung,59 µM
same,TGI,LOX IMVI melanoma,> 100 µM
same,TGI,HT29 colon,> 100 µM
same,TGI,SK-MEL-5 melanoma,24.3 µM
same,TGI,HCT-15 colon,> 100 µM
same,TGI,A498 renal,90.5 µM
same,TGI,SF-268 CNS,> 100 µM
CN1COCc2cc3cc4c(cc3nc21)OCCO4,TGI,OVCAR-5 ovarian,> 100 µM
same,TGI,NCI-H226 lung,> 100 µM
same,TGI,RPMI-8226 leukemia,62.5 µM
same,TGI,SNB-75 CNS,> 100 µM
same,TGI,U251 CNS,> 100 µM
same,TGI,A549 NSCLC,> 100 µM
same,TGI,HCC-2998 colon,> 100 µM
same,TGI,ACHN renal,> 100 µM
same,TGI,CCRF-CEM leukemia,> 100 µM
same,TGI,KM12 colon,> 100 µM
same,TGI,CAKI-1 renal,> 100 µM
same,TGI,MDA-MB-231 breast,> 100 µM
same,TGI,SF-295 CNS,> 100 µM
same,TGI,SN12C renal,> 100 µM
same,TGI,NCI/ADR-RES ovarian,> 100 µM
same,TGI,MCF7 breast,> 100 µM
same,TGI,K-562 leukemia,> 100 µM
same,TGI,SW-620 colon,> 100 µM
same,TGI,RXF 393 renal,> 100 µM
same,TGI,OVCAR-8 ovarian,> 100 µM
same,TGI,SK-MEL-2 melanoma,> 100 µM
same,TGI,M14 melanoma,> 100 µM
same,TGI,BT-549 breast,> 100 µM
same,TGI,786-0 renal,> 100 µM
same,TGI,OVCAR-4 ovarian,> 100 µM
same,TGI,MOLT-4 leukemia,> 100 µM
same,TGI,SF-539 CNS,> 100 µM
same,TGI,HCT-116 colon,> 100 µM
same,TGI,UACC-62 melanoma,> 100 µM
same,TGI,UACC-257 melanoma,> 100 µM
same,TGI,IGROV1 ovarian,> 100 µM
same,TGI,COLO 205 colon,> 100 µM
same,TGI,EKVX NSCLC,> 100 µM
same,TGI,SK-OV-3 ovarian,> 100 µM
same,TGI,TK-10 renal,> 100 µM
same,TGI,SNB-19 CNS,> 100 µM
same,TGI,HOP-62 NSCLC,> 100 µM
same,TGI,MALME-3M melanoma,> 100 µM
same,TGI,PC-3 prostate,> 100 µM
same,TGI,MDA-N,> 100 µM
same,TGI,NCI-H460 lung,> 100 µM
same,TGI,HOP-92 NSCLC,> 100 µM
same,TGI,NCI-H522 lung,> 100 µM
same,TGI,LOX IMVI melanoma,> 100 µM
same,TGI,HT29 colon,> 100 µM
same,TGI,SK-MEL-5 melanoma,> 100 µM
same,TGI,HCT-15 colon,> 100 µM
same,TGI,A498 renal,> 100 µM
same,TGI,SF-268 CNS,> 100 µM
same,TGI,MDA-MB-435,> 100 µM
